Where “and” joins values, the source holds several entries; their conditions need not be identical. Equal values may be shown once.
Tests used:
Assay in all cases: TEVC recording in X. laevis oocytes, GluN2B mutant screening
Type in all cases: cell-based
GluN1a wt/ GluN2B N192A = GluN1a wt/ GluN2B N192A (Rattus norvegicus, UniProt P35439+Q00960, N192A); details: for inhibition (%): GluN1-1a GluN2B N192A, single oocytes
GluN1a wt/ GluN2B E236A = GluN1a wt/ GluN2B E236A (Rattus norvegicus, UniProt P35439+Q00960, E236A); details: fitted curve
GluN1b wt/ GluN2B E236A = GluN1b wt/ GluN2B E236A (Rattus norvegicus, UniProt P35439+Q00960, E236A)
Procedure: (§1) Single point mutations were incorporated into template DNA (GluN1-1b wt/ pSGEM and GluN2B wt/ pSGEM) by using the QuikChange II XL site-directed mutagenesis kit (Agilent Technologies, Germany). Mutagenesis primers were designed using the QuikChange Primer Design Program (Agilent) and provided by Microsynth (Microsynth AG, Balgach, Switzerland). For mutation of the desired amino acid in the gene, PCR amplification was performed with the respective mutagenesis primers (Eppendorf MasterCycler Gradient, Eppendorf Hamburg, Germany). Mutations were verified by automated DNA sequencing. Constructs were linearized with PacI (GluN1) or NheI (GluN2B). cRNA was prepared byin vitrotranscription using the mMessage mMachine T7 kit (Life Technologies, Darmstadt, Germany).
(§2) The NMDAR was expressed in stage V and VI oocytes originated from X. laevis. Oocytes were provided by Ecocyte Bioscience (Dortmund, Germany), and equimolar amounts of wild-type and mutated GluN1 and GluN2B cRNA were injected (0.8 ng each). The oocytes were incubated in Barth’s solution, containing (mmol l^−1): 88 NaCl, 1 KCl, 0.4 CaCl2, 0.33 Ca(NO3)2, 0.6 MgSO4, 5 TRIS–HCl, 2.4 NaHCO3, supplemented with 80 mg l^−1 theophylline, 63 mg l^−1 benzylpenicillin, 40 mg l^−1 streptomycin, and 100 mg l^−1 gentamycin and maintained at 18 °C until usage. After injection, the oocytes were incubated for 5 days at 18 °C. Subsequently, the activity of the expressed NMDARs in the oocytes was recorded by two-electrode voltage clamp (TEVC).
(§3) The compounds were retrieved as 10 mM stock solutions in DMSO and were subsequently diluted with agonist solution and adjusted to 0.1% DMSO concentration. Inhibition of each compound was measured via TEVC in X. laevis oocytes at room temperature using a Turbo Tec 10CX amplifier (NPI electronic, Tamm, Germany), NI USB 6221 DA/AD Interface (National Instruments, Austin, USA), and GePulse Software (Dr. Michael Pusch, Genova, Italy). Ba^2+-Ringer, consisting of 10 mM HEPES, 90 mM NaCl, 1 mM KCl, and 1.5 mM BaCl2, adjusted to pH 7.4, was used for TEVC measurements. Agonist solution containing 10 µM glycine and 10 µM (S)-glutamate was prepared in Ba^2+-Ringer, and the measurements were performed at a holding potential of − 70 mV, using electrodes with a glass capillary filled with 3 M KCl and a resistance between 0.5 and 1.5 MΩ. The compounds were tested by applying ascending concentrations, ranging from 1 to 30,000 nM, in at least six oocytes. Example traces for all recorded conditions can be found in Supplementary Figs. S2–S9.
(§4) TEVC data were analyzed using Ana (Dr. Michael Pusch, Genova, Italy), and statistics were performed using OriginPro 2020 (OriginLab Corporation, Northampton, USA). The inhibitory effect of each compound is calculated using the following equation: inhibition=1-Ic-Ih/Ia-Ih where Ih describes the current in the absence of agonists; Ia represents the steady-state current in the presence of the agonists; and Ic is defined as the steady-state after binding of agonist and compound. All dose response curves are fitted to the following logistic equation: y=A1-A2/1+x/x0^p+A2 where A1 describes the minimal inhibition of a compound and was set to 0; A2 represents the maximal inhibition of a compound; p is the slope of the curve; x0 is defined as the concentration at half-maximal inhibition; and x is the tested concentration. Data were statistically analyzed by one-way ANOVA and Tukey post-hoc mean comparison test in OriginPro 2020 (OriginLab Corporation, Northampton, USA). p values are indicated by * for p < 0.05, ** for p < 0.01, and *** for p < 0.001.

GluN1b wt/ GluN2B Q110A = GluN1b wt/ GluN2B Q110A (Rattus norvegicus, UniProt P35439+Q00960, Q110A)
Procedure: as §1, §2, §3, §4

GluN1b wt/ GluN2B N192A = GluN1b wt/ GluN2B N192A (Rattus norvegicus, UniProt P35439+Q00960, N192A)
Procedure: as §1, §2, §3, §4

GluN1a wt/ GluN2B F176A = GluN1a wt/ GluN2B F176A (Rattus norvegicus, UniProt P35439+Q00960, F176A); details: fitted curve
Procedure: as §1, §2, §3, §4

GluN1b wt/ GluN2B F114A = GluN1b wt/ GluN2B F114A (Rattus norvegicus, UniProt P35439+Q00960, F114A); details: fitted curve
Procedure: as §1, §2, §3, §4

GluN1b wt/ GluN2B F194A = GluN1b wt/ GluN2B F194A (Rattus norvegicus, UniProt P35439+Q00960, F194A)
Procedure: as §1, §2, §3, §4

[1] = target: GluN1b wt/ GluN2B N192A/F194A (Rattus norvegicus, UniProt P35439+Q00960, F194A/N192A)
Procedure: as §1, §2, §3, §4

[2] = agonists 10 µM glycine + 10 µM (S)-glutamate, fitted curve
[3] = agonists 10 µM glycine + 10 µM (S)-glutamate

Sequence of GluN1b wt/ GluN2B E236A (Q00960 27-1482 E236A, other chains not shown): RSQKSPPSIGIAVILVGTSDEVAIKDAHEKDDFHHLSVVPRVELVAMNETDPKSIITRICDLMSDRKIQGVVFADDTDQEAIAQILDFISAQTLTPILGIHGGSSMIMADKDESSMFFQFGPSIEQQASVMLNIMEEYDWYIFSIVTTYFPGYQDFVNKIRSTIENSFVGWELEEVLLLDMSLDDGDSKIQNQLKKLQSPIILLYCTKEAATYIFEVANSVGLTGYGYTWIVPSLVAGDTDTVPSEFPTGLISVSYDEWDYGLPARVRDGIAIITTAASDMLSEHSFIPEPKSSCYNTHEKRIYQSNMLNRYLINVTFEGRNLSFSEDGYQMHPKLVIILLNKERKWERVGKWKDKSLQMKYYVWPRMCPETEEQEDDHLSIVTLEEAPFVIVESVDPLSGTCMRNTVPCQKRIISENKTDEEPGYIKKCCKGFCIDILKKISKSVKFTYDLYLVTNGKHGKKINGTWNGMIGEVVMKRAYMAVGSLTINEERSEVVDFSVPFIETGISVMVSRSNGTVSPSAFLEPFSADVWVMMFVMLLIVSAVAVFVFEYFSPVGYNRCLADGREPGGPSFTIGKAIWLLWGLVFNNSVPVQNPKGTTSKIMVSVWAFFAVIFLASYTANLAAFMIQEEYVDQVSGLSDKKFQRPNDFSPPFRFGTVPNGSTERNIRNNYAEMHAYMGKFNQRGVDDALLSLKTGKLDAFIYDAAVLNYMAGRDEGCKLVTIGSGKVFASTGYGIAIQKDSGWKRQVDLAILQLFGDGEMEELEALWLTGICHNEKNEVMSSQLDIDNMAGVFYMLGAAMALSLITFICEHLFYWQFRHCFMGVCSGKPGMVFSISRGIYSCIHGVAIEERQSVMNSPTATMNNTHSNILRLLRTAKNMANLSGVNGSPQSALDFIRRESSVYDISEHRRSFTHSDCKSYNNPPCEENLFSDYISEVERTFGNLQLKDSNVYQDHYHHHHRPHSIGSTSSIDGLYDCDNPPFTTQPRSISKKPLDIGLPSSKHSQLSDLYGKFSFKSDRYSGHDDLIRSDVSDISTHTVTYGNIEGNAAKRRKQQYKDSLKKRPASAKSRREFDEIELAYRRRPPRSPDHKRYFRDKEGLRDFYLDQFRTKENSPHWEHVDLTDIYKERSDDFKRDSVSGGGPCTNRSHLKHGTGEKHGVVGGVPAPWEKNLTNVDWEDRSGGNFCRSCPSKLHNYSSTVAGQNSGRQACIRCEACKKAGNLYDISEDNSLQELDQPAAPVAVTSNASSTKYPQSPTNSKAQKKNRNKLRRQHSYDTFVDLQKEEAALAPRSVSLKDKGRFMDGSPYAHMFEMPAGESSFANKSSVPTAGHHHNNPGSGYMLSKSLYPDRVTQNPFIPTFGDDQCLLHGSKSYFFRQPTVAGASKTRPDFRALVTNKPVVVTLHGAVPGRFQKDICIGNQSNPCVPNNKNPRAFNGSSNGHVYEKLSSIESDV
Sequence of GluN1b wt/ GluN2B N192A (Q00960 27-1482 N192A, other chains not shown): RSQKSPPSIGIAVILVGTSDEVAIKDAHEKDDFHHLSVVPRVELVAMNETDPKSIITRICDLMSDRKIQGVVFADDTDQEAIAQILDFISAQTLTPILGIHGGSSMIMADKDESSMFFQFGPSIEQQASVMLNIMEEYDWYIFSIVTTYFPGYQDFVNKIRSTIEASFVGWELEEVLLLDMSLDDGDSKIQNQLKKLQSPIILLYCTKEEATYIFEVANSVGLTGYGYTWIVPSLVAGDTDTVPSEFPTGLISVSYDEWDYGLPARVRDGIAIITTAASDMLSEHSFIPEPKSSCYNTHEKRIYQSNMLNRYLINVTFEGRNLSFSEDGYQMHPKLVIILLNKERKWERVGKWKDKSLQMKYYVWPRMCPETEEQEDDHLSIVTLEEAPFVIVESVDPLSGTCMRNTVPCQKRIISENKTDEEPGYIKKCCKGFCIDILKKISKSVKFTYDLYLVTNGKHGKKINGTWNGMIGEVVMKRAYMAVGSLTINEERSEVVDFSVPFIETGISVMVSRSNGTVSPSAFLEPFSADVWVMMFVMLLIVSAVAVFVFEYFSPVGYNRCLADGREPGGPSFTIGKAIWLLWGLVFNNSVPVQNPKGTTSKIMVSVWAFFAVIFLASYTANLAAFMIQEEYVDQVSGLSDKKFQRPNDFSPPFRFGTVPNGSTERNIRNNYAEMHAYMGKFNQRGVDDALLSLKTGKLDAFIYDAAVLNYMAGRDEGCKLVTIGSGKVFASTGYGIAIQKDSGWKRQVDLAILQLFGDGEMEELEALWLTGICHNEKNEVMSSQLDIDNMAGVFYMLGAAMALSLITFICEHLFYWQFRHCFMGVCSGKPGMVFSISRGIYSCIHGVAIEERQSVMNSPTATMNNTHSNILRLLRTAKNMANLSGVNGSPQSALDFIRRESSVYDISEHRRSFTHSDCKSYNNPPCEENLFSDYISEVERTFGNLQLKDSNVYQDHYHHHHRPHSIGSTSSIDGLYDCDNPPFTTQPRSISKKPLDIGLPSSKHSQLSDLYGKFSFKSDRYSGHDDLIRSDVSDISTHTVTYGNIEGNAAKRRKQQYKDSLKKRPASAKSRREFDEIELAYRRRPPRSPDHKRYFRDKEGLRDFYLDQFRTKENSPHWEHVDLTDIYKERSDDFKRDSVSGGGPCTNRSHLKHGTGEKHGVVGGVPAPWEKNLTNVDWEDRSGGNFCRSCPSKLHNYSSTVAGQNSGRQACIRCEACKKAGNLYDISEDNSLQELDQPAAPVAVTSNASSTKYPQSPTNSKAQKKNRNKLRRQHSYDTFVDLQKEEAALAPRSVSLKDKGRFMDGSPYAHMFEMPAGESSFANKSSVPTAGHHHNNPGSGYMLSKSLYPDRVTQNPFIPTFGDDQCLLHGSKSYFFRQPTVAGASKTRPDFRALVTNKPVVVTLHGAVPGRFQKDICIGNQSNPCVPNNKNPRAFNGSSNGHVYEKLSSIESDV
Sequence of GluN1a wt/ GluN2B N192A (Q00960 27-1482 N192A, other chains not shown): as above

SMILES: Oc1ccc2c(c1)CCN(CCCCc1ccccc1F)C[C@@H]2O [(R)-OF-NB1]
- inhibition (%) (GluN1a wt/ GluN2B N192A; compound concentration 1 μM, 1 µM): 66.1572% and 79.6651% and 73.3591% and 75.5102% and 40.4665% and 73.3363% and 63.7681%
- inhibition (%) (GluN1a wt/ GluN2B N192A; compound concentration 10 μM, 10 µM): 77.2198% and 89.4737% and 79.5367% and 82.6531% and 48.1744% and 82.1493% and 73.43%
- inhibition (%) (GluN1a wt/ GluN2B N192A; compound concentration 30 μM, 30 µM): 83.1878% and 94.0191% and 84.556% and 89.7959% and 61.6633% and 86.6457% and 82.1256%
- IC50 (GluN1a wt/ GluN2B N192A; [2]): 282 nM
- Hill coefficient (GluN1a wt/ GluN2B N192A; fitted curve): 0.4
- IC50 (GluN1a wt/ GluN2B E236A; [3]): 232 nM
- Hill coefficient (GluN1a wt/ GluN2B E236A): 1.1
- inhibition at 1 µM (GluN1b wt/ GluN2B E236A; GluN1-1b/E236A, compound concentration 1 μM, single oocytes): 39.5%
- inhibition at 10 µM (GluN1b wt/ GluN2B E236A; GluN1-1b/E236A, compound concentration 10 μM, single oocytes): 51.9%
- inhibition at 30 µM (GluN1b wt/ GluN2B E236A; GluN1-1b/E236A, compound concentration 30 μM, single oocytes): 61.6%
- IC50 (GluN1b wt/ GluN2B E236A; [2]): 3.15 µM
- Hill coefficient (GluN1b wt/ GluN2B E236A; fitted curve): 0.6
- inhibition at 10 µM (GluN1b wt/ GluN2B Q110A; GluN1-1b/Q110A, compound concentration 10 μM, single oocytes): 78.4%
- inhibition at 30 µM (GluN1b wt/ GluN2B Q110A; GluN1-1b/Q110A, compound concentration 30 μM, single oocytes): 84.2%
- IC50 (GluN1b wt/ GluN2B Q110A; [2]): 519 nM
- Hill coefficient (GluN1b wt/ GluN2B Q110A; fitted curve): 1.2
- inhibition at 10 µM (GluN1b wt/ GluN2B N192A; GluN1-1b GluN2B N192A, compound concentration 10 μM, single oocytes): 69.9%
- inhibition at 30 µM (GluN1b wt/ GluN2B N192A; GluN1-1b GluN2B N192A, compound concentration 30 μM, single oocytes): 76.3%
- IC50 (GluN1b wt/ GluN2B N192A; [2]): 567 nM
- Hill coefficient (GluN1b wt/ GluN2B N192A; fitted curve): 1.3
- Hill coefficient (GluN1a wt/ GluN2B F176A): 0.5
- IC50 (GluN1b wt/ GluN2B F114A; [3]): 14.2 µM
- Hill coefficient (GluN1b wt/ GluN2B F114A): 0.9
- inhibition at 1 µM (GluN1b wt/ GluN2B F194A; GluN1-1b GluN2B F194A, compound concentration 1 μM, single oocytes): 39.3%
- inhibition at 30 µM (GluN1b wt/ GluN2B F194A; GluN1-1b GluN2B F194A, compound concentration 30 μM, single oocytes): 51.8%
- IC50 (GluN1b wt/ GluN2B F194A; [2]): 3.84 µM
- Hill coefficient (GluN1b wt/ GluN2B F194A; fitted curve): 0.5
- inhibition at 1 µM ([1]; GluN1-1b GluN2B N192A/F194A, compound concentration 1 μM, single oocytes): 23.8%
- inhibition at 10 µM ([1]; GluN1-1b GluN2B N192A/F194A, compound concentration 10 μM, single oocytes): 35.6%
- inhibition at 30 µM ([1]; GluN1-1b GluN2B N192A/F194A, compound concentration 30 μM, single oocytes): 37%
- IC50 [1, 2]: 7.52 µM
- Hill coefficient ([1]; fitted curve): 0.3
